Active and inactive are the calls of the source. The calls are words filed in the database; no cut-off is given here.
Experiments:
[1] = molecular target: T1, Glucocorticoid receptor (Homo sapiens) (UniProt P04150); assay: Agonist activity at GAL4 DNA binding domain fused glucocorticoid receptor ligand binding domain (unknown origin) at 0.25 to 25 uM by FRET-based assay
T1 sequence (whole entry): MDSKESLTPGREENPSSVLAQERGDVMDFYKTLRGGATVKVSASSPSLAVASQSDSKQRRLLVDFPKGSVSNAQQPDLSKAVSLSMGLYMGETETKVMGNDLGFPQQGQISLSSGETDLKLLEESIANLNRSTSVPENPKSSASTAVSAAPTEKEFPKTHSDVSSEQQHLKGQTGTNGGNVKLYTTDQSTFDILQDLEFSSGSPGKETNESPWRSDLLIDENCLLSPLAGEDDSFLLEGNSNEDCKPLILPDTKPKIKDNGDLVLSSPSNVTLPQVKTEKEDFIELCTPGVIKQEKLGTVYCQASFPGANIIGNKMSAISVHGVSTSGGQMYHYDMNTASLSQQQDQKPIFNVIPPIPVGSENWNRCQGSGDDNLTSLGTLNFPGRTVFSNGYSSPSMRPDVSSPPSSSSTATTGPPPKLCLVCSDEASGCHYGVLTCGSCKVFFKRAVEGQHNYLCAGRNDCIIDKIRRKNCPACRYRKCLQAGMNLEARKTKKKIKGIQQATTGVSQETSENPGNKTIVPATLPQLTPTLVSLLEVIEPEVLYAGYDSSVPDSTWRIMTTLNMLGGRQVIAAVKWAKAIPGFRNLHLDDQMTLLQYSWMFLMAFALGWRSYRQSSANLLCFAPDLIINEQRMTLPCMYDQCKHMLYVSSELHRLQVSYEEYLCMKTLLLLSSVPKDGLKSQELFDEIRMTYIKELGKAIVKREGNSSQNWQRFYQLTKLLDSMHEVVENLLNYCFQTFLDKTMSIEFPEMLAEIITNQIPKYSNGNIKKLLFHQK

[2] = molecular target: T2, Progesterone receptor (Homo sapiens) (UniProt P06401); assay: Agonist activity at GAL4 DNA binding domain fused progesterone receptor ligand binding domain (unknown origin) at 0.25 to 25 uM by FRET-based assay
T2 sequence (whole entry): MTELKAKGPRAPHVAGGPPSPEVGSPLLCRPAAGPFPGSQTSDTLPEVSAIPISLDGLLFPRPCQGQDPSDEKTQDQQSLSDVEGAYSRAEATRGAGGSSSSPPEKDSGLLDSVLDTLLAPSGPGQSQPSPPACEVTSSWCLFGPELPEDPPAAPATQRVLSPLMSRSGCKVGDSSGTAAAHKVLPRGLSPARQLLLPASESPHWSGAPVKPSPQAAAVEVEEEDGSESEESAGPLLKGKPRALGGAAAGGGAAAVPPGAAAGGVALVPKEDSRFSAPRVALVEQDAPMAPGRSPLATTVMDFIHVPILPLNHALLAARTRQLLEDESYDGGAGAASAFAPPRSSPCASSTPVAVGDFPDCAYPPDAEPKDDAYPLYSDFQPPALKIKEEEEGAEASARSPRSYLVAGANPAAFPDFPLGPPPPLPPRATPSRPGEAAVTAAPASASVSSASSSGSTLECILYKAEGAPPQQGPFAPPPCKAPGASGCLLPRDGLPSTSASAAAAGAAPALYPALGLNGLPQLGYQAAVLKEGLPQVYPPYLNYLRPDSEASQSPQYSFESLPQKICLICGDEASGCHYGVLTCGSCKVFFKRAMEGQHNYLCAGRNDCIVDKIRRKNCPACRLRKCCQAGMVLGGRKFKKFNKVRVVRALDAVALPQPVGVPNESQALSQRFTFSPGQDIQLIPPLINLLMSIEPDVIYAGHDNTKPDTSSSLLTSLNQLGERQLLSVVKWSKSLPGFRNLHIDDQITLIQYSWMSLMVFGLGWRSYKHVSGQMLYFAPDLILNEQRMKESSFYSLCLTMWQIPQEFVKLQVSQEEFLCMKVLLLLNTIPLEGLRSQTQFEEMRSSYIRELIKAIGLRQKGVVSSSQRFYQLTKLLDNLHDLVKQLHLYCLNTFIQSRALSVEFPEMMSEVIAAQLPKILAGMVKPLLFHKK

Cytochrome P450 1A2 = molecular target: T3, Cytochrome P450 1A2 (Homo sapiens, UniProt P05177); assay: Inhibition of human recombinant CYP1A2 up to 100 uM preincubated for 10 mins followed by NADPH addition and measured after 10 to 30 mins by P450-Glo luminescence assay; assay type: ADME; settings: recombinant enzyme
T3 sequence (P05177 whole entry): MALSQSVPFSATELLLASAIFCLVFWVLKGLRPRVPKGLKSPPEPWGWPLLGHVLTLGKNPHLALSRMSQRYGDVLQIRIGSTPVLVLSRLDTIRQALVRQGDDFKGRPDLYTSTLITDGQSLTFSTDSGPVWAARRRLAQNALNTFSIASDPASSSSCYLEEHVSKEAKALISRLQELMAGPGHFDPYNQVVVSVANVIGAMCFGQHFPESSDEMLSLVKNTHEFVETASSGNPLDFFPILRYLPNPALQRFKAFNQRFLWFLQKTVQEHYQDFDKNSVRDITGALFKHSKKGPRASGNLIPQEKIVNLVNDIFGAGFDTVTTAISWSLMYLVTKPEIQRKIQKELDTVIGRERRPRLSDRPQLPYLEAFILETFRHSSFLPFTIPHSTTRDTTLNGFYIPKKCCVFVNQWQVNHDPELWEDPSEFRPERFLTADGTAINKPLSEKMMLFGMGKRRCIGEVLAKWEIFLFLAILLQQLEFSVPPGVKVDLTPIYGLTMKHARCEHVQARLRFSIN

Mus musculus [3] = assay: Memory enhancement effect in C57BL/6 mouse assessed as time spent with novel object at 100 pg administered as dorsal hippocampal infusion by novel object recognition test; assay type: functional
Mus musculus [4] = assay: Memory enhancement effect in C57BL/6 mouse assessed as time spent with novel object at 1 ng administered as dorsal hippocampal infusion by novel object recognition test; assay type: functional
Mus musculus [5] = assay: Memory enhancement effect in C57BL/6 mouse assessed as time spent with moved object at 0.5 mg/kg, ip by novel object recognition test; assay type: functional
Mus musculus [6] = assay: Memory enhancement effect in C57BL/6 mouse assessed as time spent with novel object at 0.5 mg/kg, ip by novel object recognition test; assay type: functional
Mus musculus [7] = assay: Memory enhancement effect in C57BL/6 mouse assessed as time spent with moved object at 5 mg/kg, po administered via gavage by object recognition test; assay type: functional
Cytochrome P450 3A4 = Cytochrome P450 3A4 (Homo sapiens, UniProt P08684)
Chain of Cytochrome P450 3A4 (P08684 whole entry): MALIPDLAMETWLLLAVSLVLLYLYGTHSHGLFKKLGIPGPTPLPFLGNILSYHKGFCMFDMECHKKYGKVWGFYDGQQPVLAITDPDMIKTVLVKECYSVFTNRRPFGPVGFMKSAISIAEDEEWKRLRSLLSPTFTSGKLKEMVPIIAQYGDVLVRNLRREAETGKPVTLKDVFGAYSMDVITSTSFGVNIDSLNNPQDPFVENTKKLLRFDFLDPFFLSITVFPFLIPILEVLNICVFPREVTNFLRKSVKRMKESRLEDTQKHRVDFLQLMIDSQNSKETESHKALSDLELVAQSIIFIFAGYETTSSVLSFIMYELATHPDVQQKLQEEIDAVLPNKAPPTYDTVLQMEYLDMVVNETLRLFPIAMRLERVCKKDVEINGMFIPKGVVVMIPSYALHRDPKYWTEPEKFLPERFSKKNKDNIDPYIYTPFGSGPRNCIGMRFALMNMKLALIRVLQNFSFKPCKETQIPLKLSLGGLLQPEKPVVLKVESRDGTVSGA
Description: Inhibition of human recombinant CYP3A4 preincubated for 10 mins followed by NADPH addition and measured after 10 to 30 mins by P450-Glo luminescence assay

In the case of `OC[C@H]1CC[C@H](c2ccc(O)cc2)CC1`, the Activity [1] is reported as “inactive”, the Activity [2] is reported as “inactive” and the “inhibition (INH)” value (Cytochrome P450 1A2) is reported as “Not Active”. The Time (Mus musculus [3]) was 3.16 s, the Time (Mus musculus [4]) was 1.08 s and the Time (Mus musculus [5]) was 3.93 s. It also gave a Time (Mus musculus [6]) of 4.17 s, a Time (Mus musculus [7]) of 5.06 s and an EC50 (Cytochrome P450 3A4) of 89 µM.

Reference: ChEMBL document CHEMBL4371004, “A-C Estrogens as Potent and Selective Estrogen Receptor-Beta Agonists (SERBAs) to Enhance Memory Consolidation under Low-Estrogen Conditions” (J Med Chem, 2018)
